Where two headings read alike, the source gives them in different places.
Assays:
[1] = molecular target: GST-tagged K-Ras mutant / His-tagged hSOS1 (Homo sapiens, UniProt P01116); test: HTRF assay, K-Ras mutant / SOS1 interaction; format: binding; conditions: read-out: IC50 against mutant Kras
Text: (§1) This assay can be also used to assess a selective inhibition of a mutant Ras protein relative to a wildtype, or relative to a different mutant Ras protein. For example, the equilibrium interaction of wildtype Kras or K-Ras mutant (e.g., wildtype or a mutant thereof including those mentioned in Example 6) with SOS1 (e.g., hSOS1) can be assessed as a proxy or an indication for a subject compound's ability to bind and inhibit Ras protein. HTRF assay detects from (i) a fluorescence resonance energy transfer (FRET) donor (e.g., antiGST-Europium) that is bound to GST-tagged K-Ras mutant to (ii) a FRET acceptor (e.g., anti-6His-XL665) bound to a His-tagged hSOS1.
(§2) The assay buffer can contain ˜5 mM HEPES pH 7.4, ˜150 mM NaCl, ˜ 1 mM DTT, 0.05% BSA and 0.0025% (v/v) Igepal. A Ras working solution is prepared in an assay buffer containing typically a suitable amount of the protein construct (e.g., GST-tagged K-Ras mutant) and the FRET donor (e.g., antiGST-Eu(K) from Cisbio, France). A SOS1 working solution is prepared in an assay buffer containing suitable amount of the protein construct (e.g., His-hSOS1) and the FRET acceptor (e.g., anti-6His-XL665 from Cisbio, France). A suitable amount of the protein construct will depend on the range of activity or range of IC50 values being detected or under investigation. For detecting IC50 within a range of 500 nM, the protein constructs of the same range of molarity can be utilized.
(§3) A fixed volume of DMSO with or without test compound is transferred into a 384-well plate. Ras working solution is added to all wells of the test plate. SOS1 working solution is added to all wells except for those that are subsequently filled the inhibitor control solution. Upon incubation for about 10 minutes or longer, the fluorescence is measured with a M1000Pro plate reader (Tecan) using HTRF detection (excitation 337 nm, emission 1: 620 nm, emission 2: 665 nm). Compounds are tested in duplicates at different concentrations (for example, 10 μM, 2.5 μM, 0.63 μM, 0.16 μM, 0.04 µM, 0.01 μM test compound). The ratiometric data (i.e., emission 2 divided by emission 1) is used to calculate IC50 values against Ras using GraphPad Prism (GraphPad software). Following this general procedure, samples were tested with or without a subject compound disclosed herein including compounds exemplified in Table 1 to assess their abilities to inhibit K-Ras signaling or their respective IC50 values against a given Ras protein (e.g., a given mutant K-Ras) of interest.

wildtype Kras / hSOS1 = molecular target: T1, wildtype Kras / hSOS1 (Homo sapiens, UniProt P01116); test: HTRF assay, wildtype Kras / SOS1 interaction; format: binding; conditions: read-out: IC50 against wildtype Kras
T1 construct: made in house; host or cells: E. coli BL21 (DE3)
T1 sequence (P01116 1-188 isoform P01116-2): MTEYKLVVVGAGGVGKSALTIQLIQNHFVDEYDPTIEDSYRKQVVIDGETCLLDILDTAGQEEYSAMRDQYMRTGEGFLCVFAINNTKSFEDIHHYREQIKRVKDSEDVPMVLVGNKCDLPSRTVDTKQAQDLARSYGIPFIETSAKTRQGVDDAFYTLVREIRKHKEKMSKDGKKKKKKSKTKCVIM
Text: as §1, §2, §3

[2] = compound nos. 102-196, general methodology of example 5

GST-tagged K-Ras mutant / His-tagged hSOS1, sequence (P01116 whole entry G12D, form open): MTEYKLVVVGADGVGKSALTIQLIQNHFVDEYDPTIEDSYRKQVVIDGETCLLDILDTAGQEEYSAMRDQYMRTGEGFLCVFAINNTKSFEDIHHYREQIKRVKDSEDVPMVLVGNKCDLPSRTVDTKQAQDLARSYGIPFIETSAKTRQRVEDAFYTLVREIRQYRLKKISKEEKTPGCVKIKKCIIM

Structure (SMILES) | IC50 ([1]; compound nos. 401-703) [nM] | IC50 (wildtype Kras / hSOS1; compound nos. 401-703) [nM] | IC50 [1, 2] [nM] | IC50 (wildtype Kras / hSOS1; [2]) [nM]
N#Cc1c(N)sc2c(F)ccc(-c3c(Cl)cc4c(N5CC6CCC(C5)O6)nc(OC[C@@]56CCCN5C[C@H](F)C6)nc4c3F)c12 [Compound 583, 4-(4-(8-oxa-3-azabicyclo-[3.2.1]-octan-3-yl)-6-chloro-8-fluoro-2-(((2R,7aS)-2-fluorotetrahydro-1H-pyrrol-izin-7a(5H)-yl)methoxy)-quinazolin-7-yl)-2-amino-7-fluorobenzo[b]thiophene-3-carbonitrile] | < 500 | > 500 |  | 
Fc1c(-c2cccc3[nH]ncc23)ccc2c(N3CC4CCC(C3)N4)nc(OC[C@@]34CCCN3C[C@H](F)C4)nc12 [Compound 654, 4-(3,8-diazabicyclo[3.2.1]-octan-3-yl)-8-fluoro-2-(((2R,7aS)-2-fluorotetra-hydro-1H-pyrrolizin-7a(5H)-yl)methoxy)-7-(1H-indazol-4-yl)quinazoline] | > 500 | > 500 |  | 
CN1CCC[C@H]1COc1nc(N2CCNCC(F)(F)C2)c2cc(Cl)c(-c3cccc4nc(O)oc34)c(F)c2n1 [Compound 169, 7-(6-chloro-4-(6,6-difluoro-1,4-diazepan-1-yl)-8-fluoro-2-(((S)-1-methylpyrrolidin-2-yl)methoxy)quinazolin-7-yl)benzo[d]oxazol-2-ol] |  |  | > 500 | > 500
CN(C)CC1(COc2nc(N3CC4CCC(C3)N4)c3ccc(-c4cc(O)cc5ccccc45)c(F)c3n2)CC1 [Compound 501, 4-(4-(3,8-diazabicyclo-[3.2.1]octan-3-yl)-2-((1-((dimethylamino)methyl)-cyclopropyl)methoxy)-8-fluoroquinazolin-7-yl)naph-thalen-2-ol] | < 500 | > 500 |  | 
Cc1ccc2cnn(C#N)c2c1-c1c(Cl)cc2c(N3CC4CCC(C3)N4)nc(OC[C@@]34CCCN3C[C@H](F)C4)nc2c1F [Compound 678, 7-(4-(3,8-diazabicyclo-[3.2.1]octan-3-yl)-6-chloro-8-fluoro-2-(((2R,7aS)-2-fluorotetrahydro-1H-pyrrol-izin-7a(5H)-yl)methoxy)-quinazolin-7-yl)-6-methyl-1H-indazole-1-carbonitrile] | > 500 | > 500 |  | 
Nc1nc2c(-c3cc4c(=O)n(CCN5CCCC5)nc(N5C[C@H]6CC[C@@H](C5)N6)c4cc3Cl)ccc(F)c2s1 [Compound 404, 7-(2-amino-7-fluorobenzo[d]thiazol-4-yl)-4-((1R,5S)-3,8-diazabicyclo[3.2.1]octan-3-yl)-6-chloro-2-(2-(pyrrolidin-1-yl)ethyl)phthalazin-1(2H)-one] | > 500 | < 500 |  | 
CN1CCC[C@H]1COc1nc(N2CCNCC(F)(F)C2)c2cc(Cl)c(-c3cccc4nc(N)oc34)c(F)c2n1 [Compound 166, 7-(6-chloro-4-(6,6-difluoro-1,4-diazepan-1-yl)-8-fluoro-2-(((S)-1-methylpyrrolidin-2-yl)methoxy)quinazolin-7-yl)benzo[d]oxazol-2-amine] |  |  | > 500 | > 500
CN1CCC[C@H]1COc1nc(N2CCNCC(C)(C)C2)c2cc(Cl)c(-c3cccc4sc(N)nc34)c(F)c2n1 [Compound 118, 4-(6-chloro-4-(6,6-dimethyl-1,4-diazepan-1-yl)-8-fluoro-2-(((S)-1-methylpyrrolidin-2-yl)methoxy)quinazolin-7-yl)benzo[d]thiazol-2-amine] |  |  | > 500 | > 500
Oc1ccc2ccc(-c3c(Cl)cc4c(N5CC6CCC(C5)N6)nc(OCC56CCCN5CCC6)nc4c3F)cc2c1 [Compound 650, 7-(4-(3,8-diazabicyclo-[3.2.1]octan-3-yl)-6-chloro-8-fluoro-2-((tetrahydro-1H-pyrrolizin-7a(5H)-yl)meth-oxy)quinazolin-7-yl)naph-thalen-2-ol] | > 500 | > 500 |  | 
N#CC1CCCN(c2nc(OC[C@@]34CCCN3C[C@H](F)C4)nc3c(F)c(-c4ccc(F)c5sc(N)nc45)c(Cl)cc23)CC1 (stereo partly drawn) [Compound 433, 1-(7-(2-amino-7-fluoro-benzo[d]thiazol-4-yl)-6-chloro-8-fluoro-2-(((2R,7aS)-2-fluorotetra-hydro-1H-pyrrolizin-7a(5H)-yl)methoxy)quin-azolin-4-yl)azepane-4-carbonitrile] | < 500 | < 500 |  | 
Nc1nc2c(-c3c(Cl)cc4c(N5CC6CCCC(C5)N6)nc(OC[C@@]56CCCN5C[C@H](F)C6)nc4c3F)ccc(F)c2s1 [Compound 607, 4-(4-(3,9-diazabicyclo-[3.3.1]nonan-3-yl)-6-chloro-8-fluoro-2-(((2R,7aS)-2-fluorotetrahydro-1H-pyrrol-izin-7a(5H)-yl)methoxy)-quinazolin-7-yl)-7-fluoro-benzo[d]thiazol-2-amine] | < 500 | > 500 |  | 
COC1CCCCN(c2nc(OC[C@@H]3CCCN3C)nc3c(F)c(-c4cccc5sc(N)nc45)c(Cl)cc23)C1 (stereo partly drawn) [Compound 474, 4-(6-chloro-8-fluoro-4-(3-methoxyazepan-1-yl)-2-(((S)-1-methylpyrrolidin-2-yl)methoxy)quinazolin-7-yl)benzo[d]thiazol-2-amine] | < 500 | < 500 |  | 
Cn1cnnc1COc1nc(N2CCNCC(F)(F)C2)c2cc(Cl)c(-c3cccc4sc(N)nc34)c(F)c2n1 [Compound 131, 4-(6-chloro-4-(6,6-difluoro-1,4-diazepan-1-yl)-8-fluoro-2-((4-methyl-4H-1,2,4-triazol-3-yl)methoxy)quin-azolin-7-yl)benzo[d]thiazol-2-amine] |  |  | > 500 | > 500
Nc1nc2c(-c3c(Cl)cc4c(N5CCCC(N)CC5)nc(OC[C@@]56CCCN5C[C@H](F)C6)nc4c3F)ccc(F)c2s1 (stereo partly drawn) [Compound 431, 4-(4-(4-aminoazepan-1-yl)-6-chloro-8-fluoro-2-(((2R,7aS)-2-fluorotetra-hydro-1H-pyrrolizin-7a(5H)-yl)methoxy)quinazolin-7-yl)-7-fluorobenzo[d]thiazol-2-amine] | < 500 | < 500 |  | 
CN1CCC[C@H]1COc1nc(N2CCC(O)C(F)CC2)c2cc(Cl)c(-c3cccc4sc(N)nc34)c(F)c2n1 (stereo partly drawn) [Compound 466, 1-(7-(2-aminobenzo[d]-thiazol-4-yl)-6-chloro-8-fluoro-2-(((S)-1-methylpyr-rolidin-2-yl)methoxy)quin-azolin-4-yl)-5-fluoroazepan-4-ol] | < 500 | < 500 |  | 
CN1CCC[C@H]1COc1nc(N2CCCC(C3CC3)CC2)c2cc(Cl)c(-c3cccc4sc(N)nc34)c(F)c2n1 (stereo partly drawn) [Compound 453, 4-(6-chloro-4-(4-cycloprop-propylazepan-1-yl)-8-fluoro-2-(((S)-1-methylpyrrolidin-2-yl)methoxy)quinazolin-7-yl)benzo[d]thiazol-2-amine] | > 500 | < 500 |  | 
Fc1c(N2CCCCc3ccccc32)ccc2c(N3CCCCCC3)nc(OCC34CCCN3CCC4)nc12 [Compound 548, 1-(4-(azepan-1-yl)-8-fluoro-2-((tetrahydro-1H-pyrrol-izin-7a(5H)-yl)methoxy)-quinazolin-7-yl)-2,3,4,5-tetrahydro-1H-benzo[b]-azepine] | > 500 | > 500 |  | 
N#Cc1c(N)sc2c(F)ccc(-c3c(Cl)cc4c(N5CCC6CCC(C5)N6)nc(OC[C@@]56CCCN5C[C@H](F)C6)nc4c3F)c12 (stereo partly drawn) [Compound 504, 4-(4-(3,9-diazabicyclo-[4.2.1]nonan-3-yl)-6-chloro-8-fluoro-2-(((2R,7aS)-2-fluorotetrahydro-1H-pyrrol-izin-7a(5H)-yl)methoxy)-quin-azolin-7-yl)-2-amino-7-fluorobenzo[b]thiophene-3-carbonitrile] | < 500 | > 500 |  | 
Nc1nc2c(-c3c(Cl)cc4c(N5CCCS(=O)(=O)CC5)nc(OC[C@@]56CCCN5C[C@H](F)C6)nc4c3F)ccc(F)c2s1 [Compound 477, 4-(7-(2-amino-7-fluoroben-zo-[d]thiazol-4-yl)-6-chloro-8-fluoro-2-(((2R,7aS)-2-fluorotetrahydro-1H-pyrrolizin-7a(5H)-yl)meth-oxy)quinazolin-4-yl)-1,4-thiazepane 1,1-dioxide] | < 500 | < 500 |  | 

Source: US20240254129A1, “HETEROCYCLIC COMPOUNDS AND USES THEREOF” (Kumquat Biosciences Inc., priority 2021, published 2024)
